In patent publication US8765730B2 (Hoffmann-La Roche Inc, priority 2010, dated 2014):
pEC50: −log10 of the molar value.

These compounds were tested against T1, human GPBAR1 receptor (Homo sapiens, UniProt Q8TDU6) (assay: functional cAMP assay in CHO-dhfr(minus) cells expressing human GPBAR1 receptors). Details: functional cAMP assay, 30 min at 30° C., read-out: human EC50.
T1 construct: expressed in transfected cells
T1 sequence (Q8TDU6 1-330): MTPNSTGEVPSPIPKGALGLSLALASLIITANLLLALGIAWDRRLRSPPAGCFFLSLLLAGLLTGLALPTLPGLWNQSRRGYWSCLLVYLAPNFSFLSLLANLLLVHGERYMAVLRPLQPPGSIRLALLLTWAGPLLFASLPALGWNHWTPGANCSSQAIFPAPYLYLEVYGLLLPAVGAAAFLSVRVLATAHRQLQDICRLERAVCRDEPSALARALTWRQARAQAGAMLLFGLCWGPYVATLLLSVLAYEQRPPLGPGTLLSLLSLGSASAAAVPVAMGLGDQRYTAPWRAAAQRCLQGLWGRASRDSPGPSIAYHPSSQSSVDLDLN
Assay type: cell-based
Summary of the method: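 Agonist cAMP read-out: stable GPBAR1 CHO-dhfr− clone, 30 min compound exposure at 30° C following 30 min IBMX (1 mM) preincubation in Krebs Ringer bicarbonate. Time-resolved energy-transfer detection gives EC50; parental CHO cells serve as counter-screen.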

Row | Structure (SMILES) | pEC50
1 | O/N=C(\CC(c1ccccc1)c1ccc(Br)cc1)c1ccncc1 (stereo not drawn) [Example 5, (E)-3-(4-Bromo-phenyl)-3-phenyl-1-pyridin-4-yl-propan-1-one oxime] | 7.72
2 | CS(=O)(=O)c1cccc(-c2ccc(C(C/C(=N\O)c3ccncc3)c3ccccc3)cc2)c1 (stereo not drawn) [Example 19, (E)-3-(3′-Methanesulfonyl-biphenyl-4-yl)-3-phenyl-1-pyridin-4-yl-propan-1-one oxime] | 6.45

Same assay, conditions: human EC50, functional cAMP assay, 30 min at 30° C.

Row | Structure (SMILES) | pEC50
3 | Cc1ccccc1C(C/C(=N\O)c1cc(Cl)ccc1Cl)c1ccc(Br)cc1 (single isomer, unassigned; (-)) [Example 51, (−)-(E)-3-(4-bromo-phenyl)-1-(2,5-dichloro-phenyl)-3-o-tolyl-propan-1-one oxime] | 6.03
4 | Cn1cc(/C(CC(c2ccc(Br)cc2)c2ccc(Cl)cc2F)=N/O)ccc1=O (single isomer, unassigned; (-)) [Example 240, (−)-5-{3-(4-Bromo-phenyl)-3-(4-chloro-2-fluoro-phenyl)-1-[(E)-hydroxyimino]-propyl}-1-methyl-1H-pyridin-2-one] | 7.51
5 | Cn1cc(/C(CC(c2ccc(-c3ccc(C(=O)O)cc3)cc2)c2ccc(Cl)cc2F)=N/O)ccc1=O (single isomer, unassigned; (-)) [Example 242, (−)-4′-[1-(4-Chloro-2-fluoro-phenyl)-3-[(E)-hydroxyimino]-3-(1-methyl-6-oxo-1,6-dihydro-pyridin-3-yl)-propyl]-biphenyl-4-carboxylic acid] | 6.43
6 | COC(=O)CNC(=O)c1ccc(-c2ccc(C(C/C(=N\O)c3ccc(=O)n(C)c3)c3ccc(Cl)cc3C)cc2)cc1 (single isomer, unassigned; (-)) [Example 253, (−)-({4′-[1-(4-Chloro-2-methyl-phenyl)-3-[(E)-hydroxyimino]-3-(1-methyl-6-oxo-1,6-dihydro-pyridin-3-yl)-propyl]-biphenyl-4-carbonyl}-amino)-acetic acid methyl ester] | 6.85
7 | Cc1cc(Cl)ccc1C(C/C(=N\O)c1ccc(=O)n(C)c1)c1ccc(-c2ccc(C(=O)NCC(=O)O)cc2)cc1 (single isomer, unassigned; (-)) [Example 255, (−)-({4′-[1-(4-Chloro-2-methyl-phenyl)-3-[(E)-hydroxyimino]-3-(1-methyl-6-oxo-1,6-dihydro-pyridin-3-yl)-propyl]-biphenyl-4-carbonyl}-amino)-acetic acid] | 7.52
8 | Cc1cc(Cl)ccc1C(C/C(=N\O)c1ccc(=O)n(C)c1)c1ccc(S(C)(=O)=O)cc1 (single isomer, unassigned; (-)) [Example 333, (−)-(E)-5-(3-(4-Chloro-2-methylphenyl)-1-(hydroxyimino)-3-(4-(methylsulfonyl)phenyl)-propyl)-1-methylpyridin-2(1H)-one] | 7.14
9 | O/N=C(\CC(c1ccccc1)c1cccc(Br)c1)c1ccncc1 (stereo not drawn) [Example 12, (E)-3-(3-Bromo-phenyl)-3-phenyl-1-pyridin-4-yl-propan-1-one oxime] | 7.04
10 | O/N=C(\CC(c1ccccc1)c1ccccc1)c1ccncc1 [Example 14, (E)-3,3-Diphenyl-1-pyridin-4-yl-propan-1-one oxime] | 7.28
11 | [O-][n+]1ccc(/C(CC(c2ccccc2)c2ccc(Br)cc2)=N/O)cc1 (stereo not drawn) [Example 15, (E)-3-(4-Bromo-phenyl)-1-(1-oxy-pyridin-4-yl)-3-phenyl-propan-1-one oxime] | 6.69
12 | O/N=C(\CC(c1ccccc1)c1ccc(C2CC2)cc1)c1ccncc1 (stereo not drawn) [Example 16, (E)-3-(4-Cyclopropyl-phenyl)-3-phenyl-1-pyridin-4-yl-propan-1-one oxime] | 6.75
13 | CS(=O)(=O)c1ccc(-c2ccc(C(C/C(=N\O)c3ccncc3)c3ccccc3)cc2)cc1 (stereo not drawn) [Example 20, (E)-3-(4′-Methanesulfonyl-biphenyl-4-yl)-3-phenyl-1-pyridin-4-yl-propan-1-one oxime] | 7.18
14 | CNS(=O)(=O)c1ccc(-c2ccc(C(C/C(=N\O)c3ccncc3)c3ccccc3)cc2)cc1 (stereo not drawn) [Example 21, 4′-{3-[(E)-Hydroxyimino]-1-phenyl-3-pyridin-4-yl-propyl}-biphenyl-4-sulfonic acid methylamide] | 6.52
15 | O/N=C(\CC(c1ccccc1)c1ccc(-c2cncnc2)cc1)c1ccncc1 (stereo not drawn) [Example 22, (E)-3-Phenyl-1-pyridin-4-yl-3-(4-pyrimidin-5-yl-phenyl)-propan-1-one oxime] | 7.48
16 | CS(=O)(=O)c1cccc(-c2cccc(C(C/C(=N\O)c3ccncc3)c3ccccc3)c2)c1 (stereo not drawn) [Example 23, (E)-3-(3′-Methanesulfonyl-biphenyl-3-yl)-3-phenyl-1-pyridin-4-yl-propan-1-one oxime] | 6.31
17 | CS(=O)(=O)c1ccc(-c2cccc(C(C/C(=N\O)c3ccncc3)c3ccccc3)c2)cc1 (stereo not drawn) [Example 24, (E)-3-(4′-Methanesulfonyl-biphenyl-3-yl)-3-phenyl-1-pyridin-4-yl-propan-1-one oxime] | 5.66
18 | Cc1ccc(-c2ccc(C(C/C(=N\O)c3ccncc3)c3ccccc3)cc2)cn1 (stereo not drawn) [Example 25, (E)-3-[4-(6-Methyl-pyridin-3-yl)-phenyl]-3-phenyl-1-pyridin-4-yl-propan-1-one oxime] | 6.45
19 | CCS(=O)(=O)c1ccc(-c2ccc(C(C/C(=N\O)c3ccncc3)c3ccccc3)cc2)cc1 (stereo not drawn) [Example 26, (E)-3-(4′-Ethanesulfonyl-biphenyl-4-yl)-3-phenyl-1-pyridin-4-yl-propan-1-one oxime] | 6.97

Row | Structure (SMILES) | pEC50
20 | OCc1ccc(-c2ccc(C(C/C(=N\O)c3ccncc3)c3ccccc3)cc2)cc1 (stereo not drawn) [Example 27, (E)-3-(4′-Hydroxymethyl-biphenyl-4-yl)-3-phenyl-1-pyridin-4-yl-propan-1-one oxime] | 7.04
21 | CCOC(=O)COc1cccc(-c2ccc(C(C/C(=N\O)c3ccncc3)c3ccccc3)cc2)c1 (stereo not drawn) [Example 28, (4′-{3-[(E)-Hydroxyimino]-1-phenyl-3-pyridin-4-yl-propyl}-biphenyl-3-yloxy)-acetic acid ethyl ester] | 6.79
22 | COCCN(C)c1ccc(C(C/C(=N\O)c2ccncc2)c2ccccc2C)cc1 (stereo not drawn) [Example 39, (E)-3-{4-[(2-Methoxy-ethyl)-methyl-amino]-phenyl}-1-pyridin-4-yl-3-o-tolyl-propan-1-one oxime] | 7.12
23 | Cc1ccccc1C(Cc1ccc(Br)cc1)/C(=N/O)c1ccncc1 (stereo not drawn) [Example 43, (Z)-3-(4-Bromo-phenyl)-1-pyridin-4-yl-2-o-tolyl-propan-1-one oxime] | 6.07
24 | Cc1ccccc1C(Cc1ccc(Br)cc1)/C(=N\O)c1ccncc1 (stereo not drawn) [Example 44, (E)-3-(4-bromo-phenyl)-1-pyridin-4-yl-2-o-tolyl-propan-1-one oxime] | 6.38
25 | O/N=C(\CC(c1ccccc1)c1ccc(Br)cc1)c1cc(Cl)nc(Cl)c1 (stereo not drawn) [Example 47, (E)-3-(4-Bromo-phenyl)-1-(2,6-dichloro-pyridin-4-yl)-3-phenyl-propan-1-one oxime] | 6.26
26 | Cc1ccccc1C(C/C(=N\O)c1cc(F)cc(F)c1F)c1ccc(Br)cc1 (stereo not drawn) [Example 48, (E)-3-(4-Bromo-phenyl)-3-o-tolyl-1-(2,3,5-trifluoro-phenyl)-propan-1-one oxime] | 5.36
27 | Cc1ccccc1C(C/C(=N\O)c1cc(F)ccc1F)c1ccc(Br)cc1 (stereo not drawn) [Example 52, (E)-3-(4-Bromo-phenyl)-1-(2,5-difluoro-phenyl)-3-o-tolyl-propan-1-one oxime] | 6.12
28 | Cc1ccccc1C(C/C(=N\O)c1cc(F)cc(F)c1)c1ccc(Br)cc1 (stereo not drawn) [Example 53, (E)-3-(4-bromo-phenyl)-1-(3,5-difluoro-phenyl)-3-o-tolyl-propan-1-one oxime] | 5.17
29 | Cc1ccccc1C(C/C(=N\O)c1cc(F)cc(F)c1)c1ccc(-c2cncnc2)cc1 (stereo not drawn) [Example 54, (E)-1-(3,5-Difluoro-phenyl)-3-(4-pyrimidin-5-yl-phenyl)-3-o-tolyl-propan-1-one oxime] | 5.59
30 | Cc1cc(/C(CC(c2ccccc2)c2ccccc2)=N/O)cc(F)n1 [Example 56, (E)-1-(2-Fluoro-6-methyl-pyridin-4-yl)-3,3-diphenyl-propan-1-one oxime] | 6.69
31 | O/N=C(\CC1c2ccccc2CCc2ccccc21)c1ccncc1 [Example 60, (E)-2-(10,11-Dihydro-5H-dibenzo[a,d]cyclohepten-5-yl)-1-pyridin-4-yl-ethanone oxime] | 6.09
32 | Cc1cccnc1C(C/C(=N\O)c1ccncc1)c1ccc(N(C)C)cc1 (stereo not drawn) [Example 65, (E)-3-(4-Dimethylamino-phenyl)-3-(3-methyl-pyridin-2-yl)-1-pyridin-4-yl-propan-1-one oxime] | 7.41
33 | Cc1cc(/C(CC(c2ccccc2)c2ccccn2)=N/O)cc(C)n1 (stereo not drawn) [Example 68, (E)-1-(2,6-Dimethyl-pyridin-4-yl)-3-phenyl-3-pyridin-2-yl-propan-1-one oxime] | 6.47
34 | O=C(O)c1cccc(C(C/C(=N\O)c2ccncc2)c2ccccc2)c1 (stereo not drawn) [Example 69, 3-{3-[(E)-Hydroxyimino]-1-phenyl-3-pyridin-4-yl-propyl}-benzoic acid] | 5.72
35 | O/N=C(\CC(c1ccccc1)c1ccccc1)c1cc(Cl)nc(Cl)c1 [Example 72, (E)-1-(2,6-Dichloro-pyridin-4-yl)-3,3-diphenyl-propan-1-one oxime] | 6.66
36 | O/N=C(/CC(c1ccccc1)c1ccccc1)c1cc(Cl)nc(Cl)c1 [Example 73, (Z)-1-(2,6-dichloro-pyridin-4-yl)-3,3-diphenyl-propan-1-one oxime] | 5.35
